Experimental findings from patent publication US9815867B2, “Peptide for inhibiting vascular endothelial growth factor receptor” (The University of Tokyo, priority 2012, dated 2017) are described below.

Starred links: 1 amine or outer side, 2 acyl side, 3 side chain; linkers in the order of their positions; H or OH if unused. Positions of bridges follow the written chain, without caps; N, C: chain ends. Residues, ends and D or L forms follow the SMILES beside them. X1 = O=C(C[*:2])Nc1cccc(C(=O)[*:1])c1

For one experiment, the target named is T1, mouse VEGFR2 (Mus musculus, UniProt P35918).
T1 construct: Fc (fusion partner)
Nature of the experiment: Binding of cyclic peptide to mouse VEGFR2 by BLI method (ForteBio). Particulars: VEGFR2-Fc fusion immobilized, 30° C., read-out: koff, dissociation rate constant for mouse VEGFR2. As for the experimental part: (§1) A dissociation constant of binding between the cyclic peptide L1 or BL1 thus synthesized and human VEGFR2 or mouse VEGFR2 was determined by BLI method (ForteBio). A fusion protein of VEGFR2 and Fc was immobilized onto Anti-human IgG Capture Biosensors and the cyclic peptide L1 or BL1 varied in concentration was analyzed. The temperature was set at 30° C.

Another experiment deals with HUVEC. Type of experiment: cell-based, human. Particulars: 24 h. As for the experimental part:
Next, growth inhibiting activity of L1 and BL1 against HUVEC was examined by BrdU method. HUVEC cells were treated for 30 minutes with a cyclic peptide L1 or BL1 varied in concentration and then, co-incubated with the cyclic peptide and 10 ng/mL of VEGF. Twenty four hours later, the cells were labeled with BrdU for 4 hours in the presence of the cyclic peptide and VEGF. Then, the resulting cells were fixed, stained with a peroxidase-conjugated anti-BrdU antibody, and peroxidase activity was detected using a tetramethylbenzidine color colorimetric substrate. The cells without peptide and VEGF treatments and the cells without only peptide treatment were used as a control.

A further experiment concerns the target T2, human VEGFR2 (Homo sapiens, UniProt P35968).
T2 construct: Fc (fusion partner)
The experiment in a line: Binding of cyclic peptide to human VEGFR2 by BLI method (ForteBio). Particulars: VEGFR2-Fc fusion immobilized, 30° C., read-out: koff, dissociation rate constant for human VEGFR2. Here is the method:
as §1

Experiment [1] has as its system HUVEC and human skin-derived fibroblasts. Nature of the experiment: VEGF-dependent angiogenesis, Kurabo angiogenesis kit (HUVEC and human skin-derived fibroblast co-culture). Type of experiment: cell-based. The note with it: 10 μm-L1 administered group; 10 ng/mL VEGF, 11 days, anti-CD31 staining; compared with 50 μM Suramin. Here is the method: Next, angiogenesis kit of Kurabo was used to study the influence of L1 or BL1 on VEGF-dependent angiogenesis. HUVEC and human skin-derived fibroblasts were co-cultured in the presence of 10 ng/mL of VEGF and L1 or BL1 varied in concentration. After culturing at 37° C., supplementation with VEGF and peptide having the same concentration three days, six days, and eight days later, and fixation of the HUVEC cells 11 days later, the resulting cells were stained with an anti-CD31 antibody to visualize them and analyzed by making use of an image analysis service included in the kit. As a control, 50 μM of an angiogenesis inhibitor Suramin was added instead of the peptide.

T2 sequence (P35968 20-764 limits assumed): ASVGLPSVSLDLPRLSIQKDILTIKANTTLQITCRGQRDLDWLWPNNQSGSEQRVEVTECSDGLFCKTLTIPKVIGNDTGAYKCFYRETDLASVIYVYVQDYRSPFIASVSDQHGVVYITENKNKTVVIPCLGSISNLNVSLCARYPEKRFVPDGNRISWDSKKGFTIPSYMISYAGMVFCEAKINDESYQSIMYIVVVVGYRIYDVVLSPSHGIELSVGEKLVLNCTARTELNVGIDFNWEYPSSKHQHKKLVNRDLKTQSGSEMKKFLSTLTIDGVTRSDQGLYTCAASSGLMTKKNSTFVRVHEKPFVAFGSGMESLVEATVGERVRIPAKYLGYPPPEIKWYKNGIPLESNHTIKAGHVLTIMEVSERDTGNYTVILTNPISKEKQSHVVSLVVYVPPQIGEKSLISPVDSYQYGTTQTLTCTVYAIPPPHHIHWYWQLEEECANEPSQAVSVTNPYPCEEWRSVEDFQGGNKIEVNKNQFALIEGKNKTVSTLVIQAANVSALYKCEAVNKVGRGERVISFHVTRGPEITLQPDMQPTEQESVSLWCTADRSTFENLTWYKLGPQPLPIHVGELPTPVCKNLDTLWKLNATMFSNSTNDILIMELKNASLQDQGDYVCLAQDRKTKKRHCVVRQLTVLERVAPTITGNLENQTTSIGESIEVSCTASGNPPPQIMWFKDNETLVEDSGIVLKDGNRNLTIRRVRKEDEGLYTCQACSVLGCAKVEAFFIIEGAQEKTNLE
T1 sequence (P35918 20-762 limits assumed): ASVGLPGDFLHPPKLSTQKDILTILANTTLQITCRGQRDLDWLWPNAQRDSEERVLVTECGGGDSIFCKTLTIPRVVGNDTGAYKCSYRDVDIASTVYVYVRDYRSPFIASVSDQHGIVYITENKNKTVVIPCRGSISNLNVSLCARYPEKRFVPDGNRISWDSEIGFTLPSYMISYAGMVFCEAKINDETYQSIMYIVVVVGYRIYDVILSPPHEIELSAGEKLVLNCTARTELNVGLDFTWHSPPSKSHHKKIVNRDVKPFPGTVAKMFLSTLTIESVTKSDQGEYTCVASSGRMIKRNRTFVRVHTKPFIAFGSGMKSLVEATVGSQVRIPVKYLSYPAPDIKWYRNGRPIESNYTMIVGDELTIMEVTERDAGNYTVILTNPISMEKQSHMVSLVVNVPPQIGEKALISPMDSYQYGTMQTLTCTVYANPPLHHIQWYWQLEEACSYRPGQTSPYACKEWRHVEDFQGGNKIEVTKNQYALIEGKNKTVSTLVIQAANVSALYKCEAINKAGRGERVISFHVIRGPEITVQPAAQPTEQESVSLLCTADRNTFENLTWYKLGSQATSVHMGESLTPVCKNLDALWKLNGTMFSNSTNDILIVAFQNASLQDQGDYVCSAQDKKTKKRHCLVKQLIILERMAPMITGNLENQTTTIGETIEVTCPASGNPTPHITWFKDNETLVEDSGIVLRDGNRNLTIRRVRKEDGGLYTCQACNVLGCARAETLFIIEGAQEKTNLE

Consider `CC[C@H](C)[C@@H]1NC(=O)[C@H](Cc2ccccc2)NC(=O)c2cccc(c2)NC(=O)CSC[C@@H](C(=O)NCC(N)=O)NC(=O)[C@H](CCCNC(=N)N)NC(=O)[C@H](CCC(=O)O)NC(=O)[C@H](CC(C)C)NC(=O)[C@H](CO)NC(=O)[C@H]([C@@H](C)CC)NC(=O)[C@@H]2CCCN2C(=O)[C@H](Cc2c[nH]cn2)NC(=O)[C@H](C(C)C)NC(=O)[C@H](CCCCN)NC(=O)[C@H](C(C)C)NC(=O)[C@H](CCCNC(=N)N)NC(=O)[C@H](Cc2ccc(O)cc2)NC(=O)[C@H](Cc2c[nH]cn2)NC(=O)CNC1=O` [BL1, MCAB-L-Phe-Ile-Gly-His-Tyr-Arg-Val-Lys-Val-His-Pro-Ile-Ser-Leu-Glu-Arg-Cys] (FIGHYRVKVHPISLERCG-NH2; linker N-17 via X1), for which the koff at mouse VEGFR2 worked out at 0.0008 s⁻¹; on human VEGFR2 it was 0.0009 s⁻¹. In the experiment with HUVEC, the concentration for half-maximal inhibition (IC50) was 60 nM.
In the case of `CC[C@H](C)[C@@H]1NC(=O)[C@H](Cc2ccc(O)cc2)NC(=O)[C@H](CC(C)C)NC(=O)CNC(=O)[C@H](CC(N)=O)NC(=O)[C@H](C(C)C)NC(=O)[C@H](Cc2c[nH]c3ccccc23)NC(=O)[C@@H]2CCCN2C(=O)[C@H](CC(=O)O)NC(=O)[C@H]([C@@H](C)O)NC(=O)[C@H](CO)NC(=O)[C@H](C(C)C)NC(=O)[C@H](C(C)C)NC(=O)[C@H](C(C)C)NC(=O)[C@H](Cc2ccccc2)NC(=O)CSC[C@@H](C(=O)NCC(N)=O)NC(=O)[C@H](CC(=O)O)NC1=O` [L1, ClAc-L-Phe-Val-Val-Val-Ser-Thr-Asp-Pro-Trp-Val-Asn-Gly-Leu-Tyr-Ile-Asp-Cys], the IC50 with HUVEC came to 60 nM. Further, the angiogenesis inhibiting effect result in experiment [1] is on record as “angiogenesis inhibiting effect stronger than that of Suramin”. The off-rate (koff) at human VEGFR2 worked out at 0.002 s⁻¹.
